For the assay, the target named is T1, human factor XIIIa (Homo sapiens, UniProt P00488).
T1 sequence (P00488 39-732 limits assumed): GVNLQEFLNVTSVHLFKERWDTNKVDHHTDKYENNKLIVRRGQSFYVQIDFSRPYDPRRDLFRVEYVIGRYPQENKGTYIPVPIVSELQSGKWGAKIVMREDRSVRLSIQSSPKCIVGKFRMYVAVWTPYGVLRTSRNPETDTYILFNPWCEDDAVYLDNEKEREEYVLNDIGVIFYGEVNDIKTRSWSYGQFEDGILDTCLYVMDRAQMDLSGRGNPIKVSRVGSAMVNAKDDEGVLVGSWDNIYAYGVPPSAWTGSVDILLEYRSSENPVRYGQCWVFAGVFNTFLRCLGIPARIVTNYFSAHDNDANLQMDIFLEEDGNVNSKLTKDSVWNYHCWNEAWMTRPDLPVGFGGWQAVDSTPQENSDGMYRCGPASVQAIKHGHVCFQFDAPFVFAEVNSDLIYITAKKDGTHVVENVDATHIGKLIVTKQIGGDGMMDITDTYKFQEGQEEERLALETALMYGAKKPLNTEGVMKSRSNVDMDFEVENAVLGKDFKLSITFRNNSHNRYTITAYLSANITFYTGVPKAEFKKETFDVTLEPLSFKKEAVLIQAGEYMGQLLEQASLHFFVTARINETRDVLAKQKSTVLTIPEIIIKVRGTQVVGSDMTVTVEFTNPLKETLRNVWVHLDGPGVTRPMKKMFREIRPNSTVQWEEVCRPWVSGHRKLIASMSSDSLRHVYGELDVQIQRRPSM
Nature of the assay: bi-substrate, fluorescence-based trans-glutamination assay. The assay is classed as biochemical. Conditions: pH 7.4, 37° C., 10 min incubation, N,N-dimethylcasein and dansylcadaverine substrates; read-out: FXIIIa IC50. How it is done:
To evaluate the effect of inhibitor on human factor XIIIa (and other transglutaminases), a bi-substrate, fluorescence-based trans-glutamination assay was performed. Generally, 1 μL of inhibitor was diluted with 87 μL of pH 7.4 buffer (50 mM Tris-HCl, 1 mM CaCl2, 100 mM NaCl, and 2 mg/mL N,N-dimethylcasein) and 5 μL dithiothreitol (20 mM) at 37° C. followed by the addition of 2 μL of human factor XIIIa (0.3 μM) and incubation for 10 min. The activity of factor XIIIa was monitored following the addition of 5 μL of dansylcadaverine (2 mM) by measuring the initial rate of increase in fluorescence emission (λEx.=360 nm and λEm.=490 nm). Relative residual factor XIIIa activity at each concentration of the inhibitor was calculated from the ratio of factor XIIIa activity in the presence and absence of the inhibitor. Logistic Eq. 1 was used to fit the concentration dependence of residual […] activity so as to obtain the potency (IC50) and efficacy (ΔY %) of inhibition.
In this equation, Y is the ratio of residual […] activity in the presence of inhibitor to that in its absence, YM and Y0 are the maximum and minimum possible values of the fractional residual factor XIIIa activity, IC50 is the concentration of the inhibitor that leads to 50% inhibition of enzyme activity, and HS is the Hill slope. YM, Y0, IC50, and HS values are determined by nonlinear curve fitting of the data. The data is shown in FIG. 2 (top panel) and Table 1 below: […]
On to `C=C(CC)C(=O)c1ccc(OCC(=O)O)c(Cl)c1Cl` [Formula II, 2-(2,3-dichloro-4-(2-methylenebutanoyl)phenoxy)acetic acid], for which the IC50 (as a rule, the point on the concentration scale where inhibition reaches its midpoint) was 105 µM.

Consider `C=C(CC)C(=O)c1ccc(OCC(=O)NC)c(Cl)c1Cl` [Formula IV, 2-(2,3-dichloro-4-(2-methylenebutanoyl)phenoxy)-N-methylacetamide], for which the IC50 amounted to 100 µM.

In the case of `C=CC(=O)c1ccc(OCC(=O)O)c(Cl)c1Cl` [Formula VII, 2-(4-acryloyl-2,3-dichlorophenoxy)acetic acid], the half-inhibitory concentration (IC50) worked out at 83 µM.

`C=C(CC)C(=O)c1c(Cl)cc(OCC(=O)O)cc1Cl` [Formula VI, 2-(3,5-dichloro-4-(2-methylenebutanoyl)phenoxy)acetic acid]: the half-maximal inhibitory concentration (IC50) amounted to 51 µM.

As to `C=CC(=O)c1c(Cl)cc(OCC(=O)N(C)C)cc1Cl` [Formula VIII, 2-(4-acryloyl-3,5-dichlorophenoxy)-N,N-dimethylacetamide], the IC50 turned out to be 24 µM.

On to `C=C(CC)C(=O)c1ccc(OCC(=O)OC)c(Cl)c1Cl` [Formula III, methyl 2-(2,3-dichloro-4-(2-methylenebutanoyl)phenoxy)acetate], for which the IC50 was 92 µM.

As to `C=C(CC)C(=O)c1ccc(OCC(=O)N(C)C)c(Cl)c1Cl` [Formula V, 2-(2,3-dichloro-4-(2-methylenebutanoyl)phenoxy)-N,N-dimethylacetamide], the IC50 was determined as 75 µM.

(Values after patent US20240010602A1, “PHENYL UNSATURATED KETONES AS HUMAN FACTOR XIIIA INHIBITORS FOR TREATMENT OF THROMBOEMBOLIC DISEASES” (Xavier University of Louisiana, priority 2022, published 2024).)
